According to US9505743B2, “Matrix metalloproteinase inhibitors and methods for the treatment of pain and other diseases” (AQUILUS PHARMACEUTICALS, INC., priority 2012, dated 2016):
Blank lines part the entries; values can stand above or below the molecule they belong to.

What was measured:
[1] = target: Catalytic domain of MMP-13 (human recombinant) (Homo sapiens (Human), UniProt P45452); test: MMP-13 inhibition assay; type: biochemical
Method: Catalytic domain of MMP-13 (human recombinant) enzyme was then added to the compound solution. […] The time-dependent increase in fluorescence is measured at the 355 nm excitation and 405 nm emission by automatic plate multireader.

[2] = In vivo rat pharmacokinetics, oral administration; conditions: plasma, PO 1.0 mg/kg, male Lewis rats, mean
Method: Six (6) male Lewis rats were used. Fasting was conducted at least 16 hours prior to dose administration. Food was returned at approximately 4 hours post dose. The animals were placed into 2 groups of 3 animals per group. The oral (PO) formulation for Groups 1 & 2 were prepared on the day of dosing at a target concentration of 0.5 mg/mL in 0.5% Methylcellulose (400 cps) to produce a white, homogeneous suspension. Dosing was performed as outlined in Table 24:
Each animal in Group 1 received prepared compound (56) by oral dose administration at a target dose level of 1.0 mg/kg and at a dose volume of 2 mL/kg. Each animal in Group 2 received prepared compound (45) by oral dose administration at a target dose level of 1.0 mg/kg and at a dose volume of 2 mL/kg (Table 24). Whole blood samples (0.250 mL; K2EDTA anticoagulant) were collected from each animal through a jugular vein catheter. Whole blood samples were collected from all animals pre-dose, and at 0.25, 0.5, 1, 2, 4, 8, 16, and 24 hours after dose administration. All blood samples were immediately placed on ice until processing. Whole blood samples were centrifuged at 2200×g for 10 minutes in a refrigerated centrifuge (5±3° C.) to isolate plasma. The plasma samples were transferred to individual polypropylene vials and immediately placed on dry ice before storage at nominally −20±5° C. The plasma samples some time later were then thawed and extracted and analyzed by high pressure liquid chromatography (HPLC) coupled to Mass Spectrometery (MS) (Table 25). Pharmacokinetic parameters (Table 25) were estimated using WinNonlin® pharmacokinetic software (Version No. 5.2.1) using a non-compartmental approach consistent with the PO route of administration.

[3] = clinical; cited from earlier work
[4] = In-vitro human microsomal stability; type: in vitro ADME; conditions: human microsomes, compound 1 microMoles, at T = 60 minutes
Method: (§1) Human and Rat microsomal stability was determined for select compounds following the method of Houston (Houston, J B; Biochem. Pharmacol. 47, (1994), 1469). 1 μM concentration of compound and separate human and Rat microsomes (0.3 mg/mL, BD bioscience) were used in the in-vitro assay. To ensure proper energy supply for microsomal degradation of compound, an energy regenerating system comprised of 100 mM potassium phosphate, 2 mM NADPH, 3 mM MgCl2, pH=7.4 and the microsomal protein is added to each sample and the resulting suspension is then incubated in duplicate for 60 min at 37° C. in a rotary shaker. A control is run for each test agent in duplicate omitting NADPH to detect NADPH-free degradation. At T=0 and T=60 min., an aliquot is removed from each experimental and control reaction and then mixed with an equal volume of ice-cold Stop Solution (consisting of 0.3% acetic acid in acetonitrile containing haloperidol and diclofenac as internal standards). Stopped reactions are then incubated for at least ten minutes at −20° C., and an additional volume of water is then added. The samples are then centrifuged to remove precipitated protein, and the supernatants are then analyzed by LC-MS/MS to determine the percentage of compound remaining. The LC-MS/MS system used was an Agilent 6410 mass spectrometer coupled with an Agilent 1200 HPLC and a CTC PAL chilled autosampler, all controlled by MassHunter software (Agilent), or an ABI2000 mass spectrometer coupled with an Agilent 1100 HPLC and a CTC PAL chilled autosampler, all controlled by Analyst software (ABI). After separation on a C18 reverse phase HPLC column (Agilent, Waters, or equivalent) using an acetonitrile-water gradient system, peaks were analyzed by mass spectrometry (MS) using ESI ionization in MRM mode. Verapamil (high metabolized) and Warfarin (low metabolized) are used as controls to test the activity of the microsomal proteins. Table 15 and 16 below show the microsomal stability of select compounds in both human and Rat microsomes.

[5] = In-vitro rat microsomal stability; type: in vitro ADME; conditions: rat microsomes, compound 1 microMoles, at T = 60 minutes
Method: as §1

[6] = target: Catalytic domain of MMP-2 (human recombinant) (Homo sapiens (Human), UniProt P08253); test: MMP-2 inhibition assay; conditions: read-out: Average Percent Inhibition MMP-2
Catalytic domain of MMP-2 (human recombinant), sequence (P08253 110-465): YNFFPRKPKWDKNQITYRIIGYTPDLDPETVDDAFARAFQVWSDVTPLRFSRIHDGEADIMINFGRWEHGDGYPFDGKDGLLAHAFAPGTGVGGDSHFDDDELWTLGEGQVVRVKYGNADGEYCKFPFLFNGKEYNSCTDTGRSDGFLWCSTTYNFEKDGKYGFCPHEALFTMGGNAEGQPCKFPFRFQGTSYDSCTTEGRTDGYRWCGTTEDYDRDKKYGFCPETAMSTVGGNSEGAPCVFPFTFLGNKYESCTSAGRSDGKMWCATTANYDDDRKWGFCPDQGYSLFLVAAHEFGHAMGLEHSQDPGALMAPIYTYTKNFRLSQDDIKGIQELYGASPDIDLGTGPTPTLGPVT
Method: A concentration of MMP inhibitor of the present invention was tested (10 microMolar) in duplicate runs. Catalytic domain of MMP-2 (human recombinant) enzyme (10 nanoMolar) was added to the compound solution. The mixture of enzyme and compound in assay buffer was then thoroughly mixed and incubated for 60 minutes at 37° C. Upon the completion of incubation, the assay was then started by the addition of 10 μM of fluorescent substrate Mca-P-L-G-L-Dpa-A-R-NH2 (Kd ˜8 microMolar). The fluorescent product, McaPLG, was then measured at excitation of 355 nm and emission 405 nm by an automatic plate multireader at 37° C. […] Any inhibition <50% is considered not active under these assay conditions.

[7] = target: Catalytic domain of MMP-9 (human recombinant) (Homo sapiens (Human), UniProt P14780); test: MMP-9 inhibition assay; type: biochemical; conditions: compound 10 microMolar; substrate DNP-Pro-Cha-Gly-Cys(Me)-His-Ala-Lys(N-Me-Abz)-NH2 10 microMolar; <50% considered not active; read-out: Average Percent Inhibition MMP-9
Catalytic domain of MMP-9 (human recombinant), sequence (P14780 107-444): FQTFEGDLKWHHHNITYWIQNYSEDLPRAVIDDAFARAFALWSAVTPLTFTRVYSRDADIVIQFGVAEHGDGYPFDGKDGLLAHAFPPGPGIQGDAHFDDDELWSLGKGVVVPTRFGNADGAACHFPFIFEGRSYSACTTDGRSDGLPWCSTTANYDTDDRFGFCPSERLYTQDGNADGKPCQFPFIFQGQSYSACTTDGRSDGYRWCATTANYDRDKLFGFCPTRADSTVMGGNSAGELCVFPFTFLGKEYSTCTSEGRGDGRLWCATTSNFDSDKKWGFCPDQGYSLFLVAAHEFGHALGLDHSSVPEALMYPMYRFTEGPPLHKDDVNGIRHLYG

[8] = target: Catalytic domain of MMP-1 (human recombinant) (Homo sapiens (Human), UniProt P03956); test: MMP-1 inhibition assay; type: biochemical; conditions: compound 10 microMolar; substrate 10 microMolar; <50% considered not active; read-out: Average Percent Inhibition MMP-1
Catalytic domain of MMP-1 (human recombinant), sequence (P03956 98-276): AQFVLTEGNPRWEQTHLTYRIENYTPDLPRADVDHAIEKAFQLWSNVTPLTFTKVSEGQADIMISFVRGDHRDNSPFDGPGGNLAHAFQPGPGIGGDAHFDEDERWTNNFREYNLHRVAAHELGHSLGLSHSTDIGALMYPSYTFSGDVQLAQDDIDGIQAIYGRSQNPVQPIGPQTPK

[9] = target: Catalytic domain of MMP-3 (human recombinant) (Homo sapiens (Human), UniProt P08254); test: MMP-3 inhibition assay; type: biochemical; conditions: compound 10 microMolar; substrate McaRPKPVENvalWRK(Dnp)NH2 10 microMolar; <50% considered not active; read-out: Average Percent Inhibition MMP-3
Catalytic domain of MMP-3 (human recombinant), sequence (P08254 100-272): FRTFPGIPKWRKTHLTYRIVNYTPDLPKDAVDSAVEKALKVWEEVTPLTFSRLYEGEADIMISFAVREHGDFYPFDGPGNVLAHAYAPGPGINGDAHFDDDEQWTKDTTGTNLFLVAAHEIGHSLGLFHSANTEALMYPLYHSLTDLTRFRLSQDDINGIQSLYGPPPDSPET
Method: Catalytic domain of MMP-3 (human recombinant) enzyme was then added to the compound solution. […] A positive control was then run separately using the broad spectrum MMP inhibitor Tyr-hydroxamic acid as a control compound. […]

MMP-12 = MMP-12 (Homo sapiens (Human), UniProt P39900); test: MMP-12 inhibition assay (electrophoretic mobility shift); type: biochemical; conditions: compound 10 microMolar; Fluorescein-labeled peptide 4 microMolar; <50% considered not active; read-out: Average Percent Inhibition MMP-12
MMP-12, sequence (P39900 106-470, species assumed): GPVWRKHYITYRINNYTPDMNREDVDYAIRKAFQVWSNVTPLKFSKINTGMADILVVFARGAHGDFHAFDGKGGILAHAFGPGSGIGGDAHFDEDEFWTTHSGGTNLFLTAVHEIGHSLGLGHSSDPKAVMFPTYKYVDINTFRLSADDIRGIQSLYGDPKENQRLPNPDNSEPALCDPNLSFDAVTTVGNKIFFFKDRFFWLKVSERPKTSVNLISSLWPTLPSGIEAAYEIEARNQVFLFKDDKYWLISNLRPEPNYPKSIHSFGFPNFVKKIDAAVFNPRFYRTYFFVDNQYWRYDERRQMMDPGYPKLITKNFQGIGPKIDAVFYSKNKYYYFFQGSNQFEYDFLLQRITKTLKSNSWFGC
Method: MMP-12 inhibitor activity was carried out by first separating the cleaved and uncleaved substrates by charge via electrophoretic mobility shift and then measuring the fluorescence of the separated products and comparing them with control reactions to determine inhibition of enzyme activity. The MMP-12 assay was then run using an assay buffer comprising of 100 mM HEPES, pH 7.5, 0.01% Brij-35, 1.5 mM NaCl and 2 mM CaCl2. […] The reaction was started by first adding the substrate and then incubating the reaction mixture for 1 hour at room temperature. The reaction was then terminated via the addition of a stop buffer consisting of 100 mM HEPES (pH 7.5), 30 mM EDTA, 0.015% Brij-35, and 5% DMSO. […]

SMILES: [2H]C([2H])(NC(=O)c1cc(C(=O)NCc2cccc(OC)c2)ncn1)c1ccc(C(=O)O)cc1
IC50 [1]: < 100 nM

SMILES: CNC(=O)[C@@H](NC(=O)[C@H](CC(C)C)[C@H](O)C(=O)NO)C(C)(C)C [Marimastat, marimastat]
Toxicities in humans [3]: time-dependent and dose-dependent musculoskeletal toxicities (arthralgia, myalgia, tendinitis)

SMILES: [2H]C([2H])(NC(=O)c1cc(C(=O)NCc2ccc(C(=O)O)cc2)ncn1)c1ccc(F)c(C)c1 [drawing 266]
Mean Remaining Parent with NADPH (%) [4]: 95.6%

SMILES: COc1cccc(CNC(=O)c2cc(C(=O)NCc3ccc(-c4nnn[nH]4)cc3)ncn2)c1 [drawing 267]
Mean Remaining Parent with NADPH (%) [4]: 88.1%

SMILES: [2H]C([2H])(NC(=O)c1cc(C(=O)NCc2ccc(-c3nn[nH]n3)cc2)ncn1)c1cccc(OC)c1 [drawing 268]
Mean Remaining Parent with NADPH (%) [4]: 95.3%

SMILES: [2H]C([2H])(NC(=O)c1cc(C(=O)NCc2ccc(C(=O)O)cc2)ncn1)c1ccc(F)c(C)c1 [drawing 272]
% Mean Remaining Parent with NADPH (%) [5]: 87.4%

SMILES: COc1cccc(CNC(=O)c2cc(C(=O)NCc3ccc(-c4nnn[nH]4)cc3)ncn2)c1 [drawing 274]
% Mean Remaining Parent with NADPH (%) [5]: 52.8%

SMILES: [2H]C([2H])(NC(=O)c1cc(C(=O)NCc2ccc(-c3nn[nH]n3)cc2)ncn1)c1cccc(OC)c1 [drawing 275]
% Mean Remaining Parent with NADPH (%) [5]: 57.4%

SMILES: [2H]C([2H])(NC(=O)c1cc(C(=O)NCc2ccc(C(=O)O)cc2)ncn1)c1ccc(F)c(C)c1 [drawing 278]
inhibition at 10 µM [6]: 8.19%

SMILES: [2H]C([2H])(NC(=O)c1cc(C(=O)NCc2ccc(C(=O)O)cc2)ncn1)c1ccc(F)c(C)c1 [drawing 279]
inhibition at 10 µM [7]: 2.39%

SMILES: [2H]C([2H])(NC(=O)c1cc(C(=O)NCc2ccc(C(=O)O)cc2)ncn1)c1ccc(F)c(C)c1 [drawing 280]
inhibition at 10 µM [8]: 1.83%

SMILES: [2H]C([2H])(NC(=O)c1cc(C(=O)NCc2ccc(C(=O)O)cc2)ncn1)c1ccc(F)c(C)c1 [drawing 281]
inhibition at 10 µM [9]: 1.31%

SMILES: [2H]C([2H])(NC(=O)c1cc(C(=O)NCc2ccc(C(=O)O)cc2)ncn1)c1ccc(F)c(C)c1 [drawing 282]
inhibition at 10 µM (MMP-12): 0.68%

SMILES: [2H]C([2H])(NC(=O)c1cc(C(=O)NCc2ccc(-c3nn[nH]n3)cc2)ncn1)c1cccc(OC)c1 [drawing 283]
inhibition at 1 µM ([1]; read-out: Average Percent Inhibition MMP-13): 92%

Now from value to molecule:

AUC(0-inf) [2]: 428 ng·h/mL | AUC(0-t) [2]: 414 ng·h/mL | Cmax [2]: 310 ng/mL | Tmax [2]: 24.6 min | half-life [2]: 110 min
SMILES: Cc1cc(CNC(=O)c2cc(C(=O)NCc3ccc(C(=O)O)cc3)ncn2)ccc1F [Compound 45, 4-({[6-(4-Fluoro-3-methyl-benzylcarbamoyl)-pyrimidine-4-carbonyl]-amino}-methyl)-benzoic acid]

AUC(0-inf) [2]: 705 ng·h/mL | AUC(0-t) [2]: 697 ng·h/mL | Cmax [2]: 362 ng/mL | Tmax [2]: 45 min | half-life [2]: 73.2 min
SMILES: [2H]C([2H])(NC(=O)c1cc(C(=O)NCc2ccc(F)c(C)c2)ncn1)c1ccc(C(=O)O)cc1 [Compound 56, 4-(Dideutero-{[6-(4-fluoro-3-methyl-benzylcarbamoyl)-pyrimidine-4-carbonyl]-amino}-methyl)-benzoic acid]

Mean Remaining Parent with NADPH (%) [4]: 103%
SMILES: Cc1cc(CNC(=O)c2cc(C(=O)NCc3ccc(C(=O)O)cc3)ncn2)ccc1F [drawing 264]

Mean Remaining Parent with NADPH (%) [4]: 104%
SMILES: [2H]C([2H])(NC(=O)c1cc(C(=O)NCc2ccc(F)c(C)c2)ncn1)c1ccc(C(=O)O)cc1 [drawing 265]

Mean Remaining Parent with NADPH (%) [4]: 5.3%
SMILES: Cc1cc(CNC(=O)c2cc(C(=O)NCc3ccc(F)c(C)c3)ncn2)ccc1F [drawing 269]

Mean Remaining Parent with NADPH (%) [4]: 5.5%
SMILES: [2H]C([2H])(NC(=O)c1cc(C(=O)NC([2H])([2H])c2ccc(F)c(C)c2)ncn1)c1ccc(F)c(C)c1 [drawing 270]

% Mean Remaining Parent with NADPH (%) [5]: 90.7%
SMILES: Cc1cc(CNC(=O)c2cc(C(=O)NCc3ccc(C(=O)O)cc3)ncn2)ccc1F [drawing 271]

% Mean Remaining Parent with NADPH (%) [5]: 98.5%
SMILES: [2H]C([2H])(NC(=O)c1cc(C(=O)NCc2ccc(F)c(C)c2)ncn1)c1ccc(C(=O)O)cc1 [drawing 273]

% Mean Remaining Parent with NADPH (%) [5]: 0.6%
SMILES: Cc1cc(CNC(=O)c2cc(C(=O)NCc3ccc(F)c(C)c3)ncn2)ccc1F [drawing 276]

% Mean Remaining Parent with NADPH (%) [5]: 1.7%
SMILES: [2H]C([2H])(NC(=O)c1cc(C(=O)NC([2H])([2H])c2ccc(F)c(C)c2)ncn1)c1ccc(F)c(C)c1 [drawing 277]

IC50 [1]: < 100 nM
SMILES: [2H]C([2H])(NC(=O)c1cc(C(=O)NCc2ccc(C(=O)O)cc2)ncn1)c1ccc(F)c(C)c1 [drawing 284]

IC50 [1]: < 100 nM
SMILES: [2H]C([2H])(NC(=O)c1cc(C(=O)NCc2ccc(F)c(C)c2)ncn1)c1ccc(C(=O)O)cc1 [drawing 285]
